Test results reported in patent US7064120B2, “Tricyclic pyridyl carboxamides and derivatives thereof tocolytic oxytocin receptor antagonists” (Wyeth, priority 2001, dated 2006).

Target: T1, human oxytocin receptor (Homo sapiens, UniProt P30559)
T1 construct: host or cells: CHO cells, stably transfected (pcDNA3.1 vector)
T1 sequence (P30559 1-389): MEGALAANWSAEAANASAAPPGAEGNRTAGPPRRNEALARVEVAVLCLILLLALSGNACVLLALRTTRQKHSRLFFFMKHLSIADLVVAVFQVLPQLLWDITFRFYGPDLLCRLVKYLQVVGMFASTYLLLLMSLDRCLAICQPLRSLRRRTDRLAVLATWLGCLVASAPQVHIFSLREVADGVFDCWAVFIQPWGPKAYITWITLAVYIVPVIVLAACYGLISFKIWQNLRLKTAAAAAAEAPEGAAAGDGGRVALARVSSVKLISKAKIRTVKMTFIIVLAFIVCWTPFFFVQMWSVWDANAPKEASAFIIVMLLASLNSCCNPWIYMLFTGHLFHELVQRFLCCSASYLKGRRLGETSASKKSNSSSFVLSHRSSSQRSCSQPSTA
Experiment: Oxytocin binding in CHO cell membranes expressing human oxytocin receptors ([3H]oxytocin radioligand binding)
Details: for IC50: value in parentheses, read-out: OT (IC50); for inhibition at 0.1 µM: 100 nM, read-out: OT % inhibition @ 100 nM
Summary of the method: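 CHO membranes expressing human oxytocin receptor (25–50 μg protein/well) incubated 60 min at room temperature with [3H]oxytocin in Tris-HCl pH 7.4 buffer with MgCl2, BSA and protease inhibitors. Filtration and scintillation counting; reported as % inhibition at a stated concentration or nM IC50.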

Row | SMILES | IC50 | inhibition at 0.1 µM
1 | Cc1cc(C(=O)N2Cc3ccc(C(=O)N4CCN(c5ccncc5)CC4)n3Cc3ccccc32)ccc1-c1ccccc1C(F)(F)F [Example 1] | 11.2 nM | 
2 | Cc1cc(C(=O)N2Cc3ccc(C(=O)N4CCN(Cc5ccc[n+]([O-])c5)CC4)n3Cc3ccccc32)ccc1-c1ccccc1C(F)(F)F [Example 2, 10-{[2-Methyl-2′-trifluoromethyl-[1,1′-biphenyl]-4-yl]carbonyl}-3-({4-[(1-oxidopyridin-3-yl)methyl]piperazin-1-yl}carbonyl)-10,11-dihydro-5H-pyrrolo[2,1-c][1,4]benzodiazepine] | 16.8 nM | 
3 | Cc1cc(C(=O)N2Cc3ccc(C(=O)N4CCN(Cc5ccc[n+]([O-])c5C)CC4)n3Cc3ccccc32)ccc1-c1ccccc1C(F)(F)F [Example 3, 3-({4-[(2-Methyl-1-oxidopyridin-3-yl)methyl]piperazin-1-yl}carbonyl)-10-{[2-methyl-2′-trifluoromethyl-[1,1′-biphenyl]-4-yl]carbonyl}-10,11-dihydro-5H-pyrrolo[2,1-c][1,4]benzodiazepine] | 45 nM | 
4 | Cc1cc(C(=O)N2Cc3ccc(C(=O)N(C)Cc4ccc[n+]([O-])c4)n3Cc3ccccc32)ccc1-c1ccccc1C(F)(F)F [Example 4, N-Methyl-10-{[2-methyl-2′-trifluoromethyl-[1,1′-biphenyl]-4-yl]carbonyl}-N-[(1-oxidopyridin-3-yl)methyl]-10,11-dihydro-5H-pyrrolo[2,1-c][1,4]benzodiazepine-3-carboxamide] | 2.44 nM | 
5 | COc1cc(-c2ccccc2C(F)(F)F)c(Cl)cc1C(=O)N1Cc2ccc(C(=O)N(C)Cc3cccnc3)n2Cc2ccccc21 [Example 5, 10-{[6-Chloro-3-methoxy-2′-trifluoromethyl-[1,1′-biphenyl]-4-yl]carbonyl}-N-methyl-N-(pyridin-3-ylmethyl)-10,11-dihydro-5H-pyrrolo[2,1-c][1,4]benzodiazepine-3-carboxamide] | 10.2 nM | 
6 | COc1cc(-c2ccccc2Cl)c(Cl)cc1C(=O)N1Cc2ccc(C(=O)N(C)Cc3cccnc3)n2Cc2ccccc21 [Example 6, 10-[(2′,6-Dichloro-3-methoxy-[1,1′-biphenyl]-4-yl)carbonyl]-N-methyl-N-(pyridin-3-ylmethyl)-10,11-dihydro-5H-pyrrolo[2,1-c][1,4]benzodiazepine-3-carboxamide] | 7.51 nM | 
7 | COc1cc(C(=O)N2Cc3ccc(C(=O)N(C)Cc4cccnc4)n3Cc3ccccc32)ccc1-c1ccccc1C(F)(F)F [Example 7, 10-{[2-Methoxy-2′-trifluoromethyl-[1,1′-biphenyl]-4-yl]carbonyl}-N-methyl-N-(pyridin-3-ylmethyl)-10,11-dihydro-5H-pyrrolo[2,1-c][1,4]benzodiazepine-3-carboxamide] | 3.34 nM | 
8 | COc1cc(C(=O)N2Cc3ccc(C(=O)N(C)Cc4ccc[n+]([O-])c4)n3Cc3ccccc32)ccc1-c1ccccc1C(F)(F)F [Example 8, 10-{[2-Methoxy-2′-trifluoromethyl-[1,1′-biphenyl]-4-yl]carbonyl}-N-methyl-N-(1-oxo-pyridin-3-ylmethyl)-10,11-dihydro-5H-pyrrolo[2,1-c][1,4]benzodiazepine-3-carboxamide] | 4.65 nM | 
9 | COc1cccc(-c2ccc(C(=O)N3Cc4ccc(C(=O)N(C)CCc5ccccn5)n4Cc4ccccc43)cc2C)c1 [Example 62, 10-[(3′-Methoxy-2-methyl-[1,1′-biphenyl]-4-yl)carbonyl]-N-methyl-N-[2-(2-pyridinyl)ethyl]-10,11-dihydro-5H-pyrrolo[2,1-c][1,4]benzodiazepine-3-carboxamide] | 10.7 nM | 
10 | COc1cc(-c2ccccc2C)c(Cl)cc1C(=O)N1Cc2ccc(C(=O)N(C)CCc3ccccn3)n2Cc2ccccc21 [Example 63, 10-[(6-Chloro-3-methoxy-2′-methyl-[1,1′-biphenyl]-4-yl)carbonyl]-N-methyl-N-[2-(2-pyridinyl)ethyl]-10,11-dihydro-5H-pyrrolo[2,1-c][1,4]benzodiazepine-3-carboxamide] | 5.08 nM | 
11 | COc1ccccc1-c1ccc(C(=O)N2Cc3ccc(C(=O)N(C)CCc4ccccn4)n3Cc3ccccc32)cc1C [Example 65, 10-[(2′-Methoxy-2-methyl-[1,1′-biphenyl]-4-yl)carbonyl]-N-methyl-N-[2-(2-pyridinyl)ethyl]-10,11-dihydro-5H-pyrrolo[2,1-c][1,4]benzodiazepine-3-carboxamide] |  | 95%
12 | Cc1ccccc1-c1ccc(C(=O)N2Cc3ccc(C(=O)N(C)CCc4ccccn4)n3Cc3ccccc32)cc1C [Example 66, 10-[(2,2′-Dimethyl-[1,1′-biphenyl]-4-yl)carbonyl]-N-methyl-N-[2-(2-pyridinyl)ethyl]-10,11-dihydro-5H-pyrrolo[2,1-c][1,4]benzodiazepine-3-carboxamide] |  | 92%
13 | COc1ccccc1-c1ccc(C(=O)N2Cc3ccc(C(=O)N(C)CCc4ccccn4)n3Cc3ccccc32)cc1 [Example 67, 10-[(2′-Methoxy-[1,1′-biphenyl]-4-yl)carbonyl]-N-methyl-N-[2-(2-pyridinyl)ethyl]-10,11-dihydro-5H-pyrrolo[2,1-c][1,4]benzodiazepine-3-carboxamide] |  | 91%
14 | Cc1ccccc1-c1ccc(C(=O)N2Cc3ccc(C(=O)N(C)CCc4ccccn4)n3Cc3ccccc32)cc1 [Example 68, N-Methyl-10-[(2′-methyl-[1,1′-biphenyl]-4-yl)carbonyl]-N-[2-(2-pyridinyl)ethyl]-10,11-dihydro-5H-pyrrolo[2,1-c][1,4]benzodiazepine-3-carboxamide] |  | 93%
15 | COc1cc(C(=O)N2Cc3ccc(C(=O)N(C)CCc4ccccn4)n3Cc3ccccc32)ccc1-c1ccccc1C [Example 69, 10-[(2-Methoxy-2′-methyl-[1,1′-biphenyl]-4-yl)carbonyl]-N-methyl-N-[2-(2-pyridinyl)ethyl]-10,11-dihydro-5H-pyrrolo[2,1-c][1,4]benzodiazepine-3-carboxamide] |  | 94%
16 | COc1cccc(-c2cc(OC)c(C(=O)N3Cc4ccc(C(=O)N(C)CCc5ccccn5)n4Cc4ccccc43)cc2Cl)c1 [Example 70, 10-[(6-Chloro-3,3′-dimethoxy-[1,1′-biphenyl]-4-yl)carbonyl]-N-methyl-N-[2-(2-pyridinyl)ethyl]-10,11-dihydro-5H-pyrrolo[2,1-c][1,4]benzodiazepine-3-carboxamide] |  | 77%
17 | COc1cc(C(=O)N2Cc3ccc(C(=O)N(C)CCc4ccccn4)n3Cc3ccccc32)ccc1-c1cccc2ccccc12 [Example 71, 10-[3-Methoxy-4-(naphthalen-1-yl)benzoyl]-N-methyl-N-[2-(2-pyridinyl)ethyl]-10,11-dihydro-5H-pyrrolo[2,1-c][1,4]benzodiazepine-3-carboxamide] |  | 81%
18 | COc1cccc(-c2ccc(C(=O)N3Cc4ccc(C(=O)N(C)CCc5ccccn5)n4Cc4ccccc43)cc2OC)c1 [Example 72, 10-[(2,3′-Dimethoxy-[1,1′-biphenyl]-4-yl)carbonyl]-N-methyl-N-[2-(2-pyridinyl)ethyl]-10,11-dihydro-5H-pyrrolo[2,1-c][1,4]benzodiazepine-3-carboxamide] |  | 89%
19 | CN(CCc1ccccn1)C(=O)c1ccc2n1Cc1ccccc1N(C(=O)c1ccc(-c3cccc4ccccc34)cc1Cl)C2 [Example 73, 10-[2-Chloro-4-(naphthalen-1-yl)benzoyl]-N-methyl-N-[2-(2-pyridinyl)ethyl]-10,11-dihydro-5H-pyrrolo[2,1-c][1,4]benzodiazepine-3-carboxamide] |  | 32%
